Consider 3 molecules from patent US10253071B2, “Selectin inhibitors, composition, and uses related thereto” (Beth Israel Deaconess Medical Center, Inc., priority 2014, dated 2019).

Like-named read-outs stand apart in the source and are kept apart here. Square brackets hold non-standard residues; d marks the D form. Ends that are not written are not given here. Peptide text beside a SMILES is read from it. * marks the point of attachment. X1 = CC(=O)N[C@@H]1[C@@H](O[C@@H]2O[C@H](CO)[C@H](O)[C@H](O)[C@H]2O)[C@@H](O)[C@@H](CO[C@@H]2O[C@H](CO)[C@@H](O[C@@H]3O[C@H](CO)[C@H](O)[C@H](O[C@]4(C(=O)O)C[C@H](O)[C@@H](NC(C)=O)[C@H]([C@H](O)[C@H](O)CO)O4)[C@H]3O)[C@H](O[C@@H]3O[C@@H](C)[C@@H](O)[C@@H](O)[C@@H]3O)[C@H]2NC(C)=O)O[C@@H]1*; Phe(4-SO3H) = N[C@@H](Cc1ccc(S(=O)(=O)O)cc1)C(=O)O; Mca = COc1ccc2c(CC(=O)*)cc(=O)oc2c1

Series [1] has as its system P-selectin (recombinant Ig chimera). Briefly: Microarray binding screen of glycopeptide mimics, P-selectin. Also noted: species or system human and mouse. The note with it: selectin Ig chimeras 5-20 μg/mL, Alexa-488 anti-human IgG. The procedure: (§1) Bound peptides were detected using Alexa-488 labeled anti-human IgG antibody (5 μg/mL). Three lectins RCA-1, AAL, and PNA were used to confirm the sequence of enzymatic steps. Monoclonal antibodies CHO131, PSG2 antibody and PL-1 were used to confirm the presence of SLex, tyrosine sulfates, and the peptide sequence, respectively. Biacore binding analysis to human P-selectin with observed rate constants for (D) GSnP-6, kon 3.1×10^5 M^−1s^−1, koff 6.9×10^3 M^−1s^−; GSn2P-6, kon6.4×10^5 M^−1s^−1, koff 6.8×10^3 M^−1s. Biacore binding analysis to mouse P-selectin with observed rate constants for (E) GsnP-6, kon 4.9×10^4 M^−1s^−1, koff 8.0×10^3 M^−1s^−; GSn2P-6 kon 5.3×10^4 M^−1s^−1, koff 9.0×10^3 M^−1s. (F) Temperature- and pH-dependent stability studies of GSnP-6.
Binding affinities of PSGL-1 mimics towards selectins was initially screened using a microarray in which glycosulfopeptides and glycan standards (Sialyl Le^x, NA2, NA2,3, NA2,6 and LNnT) were printed on a NHS-activated glass slide. The slide was then incubated with recombinant Ig chimeras of P-, L-, or E-selectin (5-20 μg/mL) followed by Alexa-488 labeled anti-human IgG antibody (5 μg/mL). […] Binding of glycopeptides mimics to selectins was […] dependent and inhibited by EDTA.

The nature of series [2]: Chemical stability at low pH and at high temperature (RP-HPLC). Format: physicochemical. The note with it: sodium acetate/acetic acid buffer pH 5, 37° C.; and 2 mM phosphate buffer pH 7.5, 60° C. The procedure:
as §1
The chemical stability of GSnP-6 was evaluated under low pH conditions by incubating the compound in sodium acetate/acetic acid buffer at pH 5, 37° C., as well as under high temperature conditions by incubation in 2 mM phosphate buffer at pH 7.5, 60° C. (FIG. 3E).

Series [3] deals with T1, human P-selectin (Homo sapiens, UniProt P16109).
T1 sequence (P16109 42-830): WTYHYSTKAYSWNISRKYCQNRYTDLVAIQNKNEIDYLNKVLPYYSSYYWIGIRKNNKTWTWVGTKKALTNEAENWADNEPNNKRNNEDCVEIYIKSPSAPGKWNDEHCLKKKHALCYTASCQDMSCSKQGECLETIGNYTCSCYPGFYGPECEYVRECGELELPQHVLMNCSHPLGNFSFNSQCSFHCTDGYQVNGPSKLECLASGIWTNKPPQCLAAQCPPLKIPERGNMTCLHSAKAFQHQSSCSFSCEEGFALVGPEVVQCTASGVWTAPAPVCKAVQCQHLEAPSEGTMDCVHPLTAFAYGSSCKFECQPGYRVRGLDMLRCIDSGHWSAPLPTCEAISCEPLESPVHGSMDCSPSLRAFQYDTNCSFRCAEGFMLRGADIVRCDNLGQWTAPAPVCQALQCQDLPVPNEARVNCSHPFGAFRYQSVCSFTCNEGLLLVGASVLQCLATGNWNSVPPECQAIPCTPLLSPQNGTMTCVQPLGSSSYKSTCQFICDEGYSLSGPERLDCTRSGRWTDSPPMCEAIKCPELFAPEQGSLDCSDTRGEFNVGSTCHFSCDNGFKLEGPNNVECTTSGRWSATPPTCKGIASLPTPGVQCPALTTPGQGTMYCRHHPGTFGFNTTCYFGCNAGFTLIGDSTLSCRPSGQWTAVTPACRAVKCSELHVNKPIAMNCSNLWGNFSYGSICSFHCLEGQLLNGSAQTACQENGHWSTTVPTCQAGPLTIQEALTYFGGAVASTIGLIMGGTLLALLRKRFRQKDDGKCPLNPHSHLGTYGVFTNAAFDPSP
Briefly: Biacore binding assay, human P-selectin. The procedure: as §1
(§2) Dissociation constants (Kd) were determined using a Biacore binding assay after initial capture of biotinylated GS(n)P-6 onto streptavidin-coated sensor chips followed by flow through of P-, L- or E-sel-Ig (2.5 to 60 μg/mL). […] The Kd of GSnP-6 to murine P-selectin was ˜9-fold lower than to human P-selectin.
On the technique in general: In SPR one partner is held on a chip, and binding of the other changes the refractive index at the surface.

In a further series the target is T2, mouse P-selectin (Mus musculus, UniProt Q01102).
T2 sequence (Q01102 42-768): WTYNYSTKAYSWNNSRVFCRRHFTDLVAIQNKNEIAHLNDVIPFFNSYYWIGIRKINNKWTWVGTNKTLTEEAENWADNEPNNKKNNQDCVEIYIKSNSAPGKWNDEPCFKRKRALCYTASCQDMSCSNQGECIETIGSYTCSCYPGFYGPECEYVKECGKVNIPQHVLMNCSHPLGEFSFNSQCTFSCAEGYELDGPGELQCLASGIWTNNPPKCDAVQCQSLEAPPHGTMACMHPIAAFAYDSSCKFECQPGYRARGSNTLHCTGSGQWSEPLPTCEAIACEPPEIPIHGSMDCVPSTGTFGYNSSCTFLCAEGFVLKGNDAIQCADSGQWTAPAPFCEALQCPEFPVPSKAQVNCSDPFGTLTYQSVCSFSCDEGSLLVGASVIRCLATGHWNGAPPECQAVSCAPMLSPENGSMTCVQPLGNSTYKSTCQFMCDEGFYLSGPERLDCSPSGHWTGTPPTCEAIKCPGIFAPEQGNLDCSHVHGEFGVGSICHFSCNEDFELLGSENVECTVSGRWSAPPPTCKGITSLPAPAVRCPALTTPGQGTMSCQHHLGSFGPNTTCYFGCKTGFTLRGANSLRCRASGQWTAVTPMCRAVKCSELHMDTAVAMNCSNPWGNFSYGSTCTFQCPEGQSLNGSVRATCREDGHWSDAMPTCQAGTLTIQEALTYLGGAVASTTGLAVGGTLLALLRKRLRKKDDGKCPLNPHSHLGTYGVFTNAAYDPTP
The series is described as follows: Biacore binding assay, mouse P-selectin. The method, then:
as §1, §2

Series [4] concerns the target T1, human P-selectin. The note with it: comparison value for P-selectin; read-out: Kd of native PSGL-1 (comparison value); cited from earlier work.

Regarding “GSP-6: Tyrosine O-sulfate series (X: O; R=H); native N-terminal PSGL-1 sequence containing tyrosine sulfate, hexasaccharide glycan (EYEYLDYDFLPETEPPE; also: tyrosine O-sulfate, positions not given here, hexasaccharide glycan, site not given here) [reference compound]”, in series [1], the “binding to P-selectin compared with E- or L-selectin” value is listed as “bound to P-selectin more strongly than to E- or L-selectin”. Moreover, the “chemical stability (degraded products by RP-HPLC)” value in series [2] was “rapidly degrades”.
In general, koff refers to the rate constant with which the complex falls apart. In general, kon refers to the second-order rate constant of association. Usually Kd stands for a measure of binding affinity in units of concentration. For the molecule `COc1ccc2c(CC(=O)NCCCC[C@H](N)C(=O)N[C@@H](CCC(=O)O)C(=O)N[C@@H](Cc3ccc(S(=O)(=O)O)cc3)C(=O)N[C@@H](CCC(=O)O)C(=O)N[C@@H](Cc3ccc(S(=O)(=O)O)cc3)C(=O)N[C@@H](CC(C)C)C(=O)N[C@@H](CC(=O)O)C(=O)N[C@@H](Cc3ccc(S(=O)(=O)O)cc3)C(=O)N[C@@H](CC(=O)O)C(=O)N[C@@H](Cc3ccccc3)C(=O)N[C@@H](CC(C)C)C(=O)N3CCC[C@H]3C(=O)N[C@@H](CCC(=O)O)C(=O)N[C@H](C(=O)N[C@@H](CCC(=O)O)C(=O)N3CCC[C@H]3C(=O)N[C@@H](CC(C)C)C(=O)O)[C@@H](C)O[C@H]3O[C@H](CO[C@@H]4O[C@H](CO)[C@@H](O[C@@H]5O[C@H](CO)[C@H](O)[C@H](O[C@]6(C(=O)O)C[C@H](O)[C@@H](NC(C)=O)[C@H]([C@H](O)[C@H](O)CO)O6)[C@H]5O)[C@H](O[C@@H]5O[C@@H](C)[C@@H](O)[C@@H](O)[C@@H]5O)[C@H]4NC(C)=O)[C@H](O)[C@H](O[C@@H]4O[C@H](CO)[C@H](O)[C@H](O)[C@H]4O)[C@H]3NC(C)=O)cc(=O)oc2c1` [GSn2P-6] (H-K(Mca)E[Phe(4-SO3H)]E[Phe(4-SO3H)]LD[Phe(4-SO3H)]DFLPET(X1)EPL-OH; N-terminus assumed), the koff turned out to be 0.0068 s⁻¹ on human P-selectin [3] (Biacore observed rate constant) and 0.009 s⁻¹ on mouse P-selectin (read-out: koff, mouse P-selectin). The kon at human P-selectin [3] (Biacore observed rate constant) is 640000 M⁻¹ s⁻¹; at mouse P-selectin (read-out: kon, mouse P-selectin), 53000 M⁻¹ s⁻¹. The Kd on human P-selectin [3] (biotinylated GS(n)P-6 captured on streptavidin chip, P-sel-Ig 2.5 to 60 μg/mL, read-out: Dissociation constant (Kd) to human P-selectin) came to 14 nM.

B1: native PSGL-1: native P-selectin glycopeptide ligand-1, Kd comparison value (protein, UniProt Q14242 42-412, looked up)
P-selectin glycoprotein …: QATEYEYLDYDFLPETEPPEMLRNSTDTTPLTGPGTPESTTVEPAARRSTGLDAGGAVTELTTELANMGNLSTDSAAMEIQTTQPAATEAQTTQPVPTEAQTTPLAATEAQTTRLTATEAQTTPLAATEAQTTPPAATEAQTTQPTGLEAQTTAPAAMEAQTTAPAAMEAQTTPPAAMEAQTTQTTAMEAQTTAPEATEAQTTQPTATEAQTTPLAAMEALSTEPSATEALSMEPTTKRGLFIPFSVSSVTHKGIPMAASNLSVNYPVGAPDHISVKQCLLAILILALVATIFFVCTVVLAVRLSRKGHMYPVRNYSPTEMVCISSLLPDGGEGPSATANGGLSKAKSPGLTPEPREDREGDDLTLHSFLP
With B1, in the series with human P-selectin [4], the Kd was 73 nM.
